# Assay results from patent US20180071354A1, “SELECTIVE BREEDING METHOD OF ANTITUMOR/ANTICANCER CAMELLIA SINENSIS STRAIN, AND TEA PRODUCT OF SUCH STRAIN” (FUJIAN AGRICULTURE AND FORESTRY UNIVERSITY, priority 2015, published 2018).
# System: human leukemia cell line K562
# Experiment: In vitro antitumor/anticancer testing (CCK-8), K562
# Format: cell-based
# Conditions: 48 h, read-out: Percent growth inhibition
# Description: Each of Tea Product 1 and Conventional Tea Product obtained in section A of this example was used to prepare test tea samples according to the method described below. A proper amount of the respective tea product was added into sterile water to prepare a stock solution with a concentration of 100 mg/mL, followed by using a membrane filter with a pore size of 0.22 μm to conduct vacuum filtration and sterilization. The resulting stock solution was diluted with a respective complete medium shown in Table 3 below to form test tea samples with different concentrations. In other words, the thus obtained test tea samples to be used for treating a respective cancer/tumor cell line shown in Table 3 were prepared using the same complete medium as that for the respective cancer/tumor cell line.
# Specifically, each of the aforesaid commercially available agents was subjected to the method described below to prepare comparative test samples. A proper amount of a respective commercially available agent was dissolved in phosphate-buffered saline (PBS) to prepare a stock solution with a concentration of 5 mg/mL, followed by using a membrane filter with a pore size of 0.22 μm to conduct vacuum filtration and sterilization. The resulting stock solution was diluted with a respective complete medium shown in Table 3 below to form comparative test samples with different concentrations. To be specific, the comparative test samples prepared from the respective commercially available agent have the concentrations shown in Table 2 below. The thus obtained comparative test samples to be used for treating a respective cancer/tumor cell line shown in Table 3 were prepared using the same complete medium as that for the respective cancer/tumor cell line.
# The cultivation of each cancer/tumor cell line is described as follows. […] Afterwards, a cell suspension having a cell density of 1.0×10^4 cells/mL was prepared.
# As experimental groups, the tumor/cancer cells of each cell line were treated with the test tea samples prepared from one or more of the tea products and the comparative test samples prepared from one or more of the commercially available agents as obtained in section B of this example (for more detailed information about the tea product(s) and the commercially available product (s) used to treat each cell line, please see Table 4 below). To be specific, 6 to 10 test tea samples prepared from the same tea product and having different concentrations, as well as 6 to 10 comparative test samples prepared from the same commercially available agent and having different concentrations, were utilized to treat the tumor/cancer cells of each cell line. For each experimental group, 6 repetitions of tumor/cancer treatment were performed. For the control group, 100 μL of PBS was added to a well containing the medium and the cancer/tumor cells of the respective cell line. For the blank group, 100 μL of PBS was added to a well containing a complete medium the same as that used for cultivation of the cancer/tumor cells of the respective cell line.
# After the treatment described above, cultivation was conducted in an incubator (37° C., 100% relative humidity, 5% CO2) for 48 hours. Subsequently, the liquid containing the medium and the sample in the well was removed, and a respective complete medium (shown in Table 3 above) containing 10% CCK-8 (Cell Counting Kit-8)(Dojindo Molecular Technologies, Inc., Cat. No. CK04-13) was added. Cultivation was performed in an incubator (37° C.) for 2 to 4 hours, followed by gently shaking.
compound,measurement,setting,value
Cc1ccc(NC(=O)c2ccc(CN3CCN(C)CC3)cc2)cc1Nc1nccc(-c2cccnc2)n1 [Glivec],inhibition at 0.0184 µg/mL,0.0184 μg/mL,17.7%
same,inhibition at 0.0369 µg/mL,0.0369 μg/mL,35.7%
same,inhibition at 0.0737 µg/mL,0.0737 μg/mL,55.3%
same,inhibition at 0.1474 µg/mL,0.1474 μg/mL,66.2%
same,inhibition at 0.2949 µg/mL,0.2949 μg/mL,81.5%
same,inhibition at 0.5897 µg/mL,0.5897 μg/mL,88.9%
